Experimental data taken from patent US20250042925A1, “Improved Compositions and Methods for Targeting Mitochondria in Cancer Cells” (The Medical College of Wisconsin, Inc., priority 2021, published 2025).

Assays:
[1] = tested on: HPNE and HPSC non-transformed cells; assay: Cell growth (confluence) of normal non-transformed cells; format: cell-based, human; conditions: for sensitivity of normal non-transformed cells compared to cancer cells: HPNE, HPSC versus cancer cells
Description: To test the off-target effects of the refined MMe analogs on normal non-transformed cells, the growth of HPNE cells (FIGS. 11A, 11D, and 11G), used as a surrogate for normal pancreatic ductal epithelium, or normal stromal HPSC cells (FIGS. 11B, 11E, and 11H) were measured in increasing concentrations of MMe, pCF3-MMe, or mCF3-MMe and compared to the vehicle control.
(§1) Murine pancreatic cancer cells KPC1242 (David Tuveson, Cold Spring Harbor), human pancreatic cancer cells, Panc-1 (ATCC: CRL-1469), human breast cancer cells MDA-MB-231 (ATCC: CRM-HTB-26), and human pancreatic stellate cells HPSC (Rosa F. Hwang, MD Anderson cancer) were all cultured in DMEM (Gibco ThermoFisher Scientific, Waltham, MA, Cat #11965084) containing 10% v/v fetal bovine serum (Omega Scientific, Inc., Tarzana, CA, Cat #FB-12). Human pancreatic cancer cells AsPC-1 (ATCC: CRL-1682), human ovarian cancer cells OVCAR-8 (NIH: CVCL-1629), and human ovarian cancer cells OVCAR-4 (NIH: CVCL-1627) were all cultured in DMEM (Gibco, Cat #22400089) containing 10% v/v fetal bovine serum (Omega Scientific). Human colon cancer cells HCT-116 (ATCC: CCL-247) were cultured in McCoy's 5A Modified Medium (Gibco, Cat #16600082) containing 10% v/v fetal bovine serum (Omega Scientific). Human pancreatic duct epithelial cells HPNE (ATCC: CRL-4023) were cultured in DMEM and 200 mM L-Glutamine and 7.5% w/v NaCO3 further supplemented with 15% v/v fetal bovine serum, M3-Base A (Incell, San Antonio, TX), 1M D-Glucose (Gibco Cat #J60067.EQE), 100 μg/mL human EGF (Gibco Cat #PHG0313) and 10 mg/mL puromycin (ThermoFisher, Cat #A1113802).

C57BL/6J mice = assay: Tolerability in non-tumor-bearing mice; format: in vivo; conditions: for tolerability of repeated injection: daily for 5 consecutive days, 25 μg/mouse to 1 mg/mouse
Description: FIGS. 6A-6I show pCF3-MMe inhibits tumor growth with enhanced biosafety relative to MMe. C57BL/6J mice were treated with 1 mg MMe, 1 mg pCF3-MMe, 1 mg MMe, 250 μg MMe, 100 μg MMe, 50 μg MMe, or 25 μg MMe for 6 hours (FIG. 6A) or 5 days (FIG. 6D). Kaplan-Meier survival curve of mice treated for 6 hours (FIG. 6B) or 5 days […], n=3-5. Numbers of mice surviving over time after a single injection (FIG. 6C) or 5 repeated doses (FIG. 6F). Significance was determined using a Mantel-Cox test (*, p<0.05; **, p<0.01). KPC1242 murine pancreatic cancer engrafted mice were treated with 1 mg pCF3-MMe or vehicle 5 days on and 2 days off (FIG. 6G). Tumors isolated from vehicle and treated mice were pictured (FIG. 6H). Tumor volume was measured ex vivo from vehicle and pCF3-MMe-treated mice (FIG. 6I). Values are mean±SD. Significant differences were determined by Student's t-test (*, p<0.05).
With the ability to detect pCF3-MMe in vitro and in vivo in hand, along with anti-tumor properties and decreased toxicity towards non-transformed cells in culture, we next compared the tolerability of pCF3-MMe in mice. Non-tumor-bearing mice received an intraperitoneal injection with decreasing amounts (1 mg, 250 μg, 100 μg, 50 μg, or 25 μg) of unsubstituted MMe or pCF3-MMe. […] […].
Given the strong safety shown from a single injection, further studies were conducted to determine if mice tolerated repeated injection using our published treatment schedule by injecting non-tumor-bearing mice daily for 5 consecutive days with doses ranging from as little as 25 μg/mouse to as much as 1 mg/mouse […] (FIG. 6D). […] Since 1 mg/mouse pCF3-MMe was well tolerated in tumor-free animals, further studies were conducted to test if pCF3-MMe could inhibit tumor growth in vivo. Mice were implanted with murine cancer cells and injected 17 days after engraftment with 1 mg pCF3-MMe (FIG. 6G). […] Taken together, trifluoromethylation of TPP^+ improves the reproducible detection, quantitative measurement, and safety profile of TPP^+-conjugated compounds while retaining potent anti-tumor effects in vivo.

[2] = tested on: mitochondrial respiratory complex I; assay: Complex I derived oxygen consumption in permeabilized cells; format: cell-based, murine; conditions: KPC1242 cell line, 24-hour treatment
Description: Cells were plated to Seahorse XF96 cell culture microplates at 20,000 cells/well. Stock compounds in DMSO were diluted in RPMI medium to a final concentration in […] volume, incubated at 37° C. for 24 hours, centrifuged at 200×g for 2 minutes, and conditioned medium removed and replaced with serum-free RPMI […]. Oxygen consumption (OCR) and extracellular flux (ECAR) were measured after injections of oligomycin (1 mg/mL), dinitrophenol […], rotenone […], and antimycin A […]. Analysis was performed by normalizing OCR and ECAR readouts to vehicle controls. Complex I and II activity were analyzed after permeabilization of the cells.

AsPC-1 cells = assay: TMRE retention (mitochondrial depolarization) by flow cytometry in AsPC-1; format: cell-based, human; conditions: AsPC-1, 1 hour treatment
Description: AsPC-1 and HPSC cells were serum-starved overnight, loaded with tetramethylrhodamine ethyl ester (TMRE), and treated for 1 hour with the indicated concentrations of MMe or pCF3-MMe or, as the vehicle control, DMSO. Mitochondrial TMRE retention was measured by flow cytometry. Representative histograms of n=3 of TMRE fluorescence in AsPC-1 (FIG. 4A) and HPSC (FIG. 4B) in response to treatment. […] Total cellular ATP levels were analyzed using a luminescent ATP detection assay of KPC1242 cells treated with MMe (0.7 μM) or pCF3-MMe (3 μM), and changes in ATP levels were assayed (FIG. 4E). Representatives immunoblot analyses of phosphorylated and total AMPK levels (FIG. 4F) and densitometric quantification (FIG. 4G) in KPC1242 cells treated with MMe (0.7 μM) or pCF3-MMe (3 μM). […] Values are mean±SD from 3 biological replicates. Statistical differences in a, c, and e were determined using Student's t-test (*, p<0.05; **, p<0.01; ***, p<0.001, ns: not significant).
TPP-conjugated compounds are known to effectively target the mitochondria of cancer cells. Thus, the efficacy of pCF3-MMe to effectively target the mitochondria of cancer cells was tested and compared to normal cells using tetramethylrhodamine ethyl ester perchlorate (TMRE), a cell-permeant, positively-charged dye that accumulates in active mitochondria, and is released into the cytosol upon mitochondrial damage. […]

[3] = tested on: KPC1242, Panc-1, AsPC-1, HCT-116, MDA-MB-231, OVCAR-4, OVCAR-8 cancer cell lines; assay: Cell growth (IncuCyte confluence) in cancer cell lines; format: cell-based, murine, human; conditions: for cell confluency: increasing concentrations 0.1 μM-10 μM, each of the cancer cells
Excerpt: as §1

Compound	sensitivity of normal non-transformed cells compared to cancer cells [1]	tolerability of repeated injection (C57BL/6J mice)	tolerability after a single injection (C57BL/6J mice; single intraperitoneal injection, MMe 250 μg or 1 mg, metformin 1 mg)	complex I derived OCR [2]	TMRE accumulation within the mitochondria (AsPC-1 cells)	cell confluency [3]	reduction in toxicity to normal cells compared to MMe [1] [fold]	toxic effects towards non-transformed HPNE and HPSC-1 cells ([1]; compared to the parent MMe and the mCF3-MMe analog)	mice surviving (C57BL/6J mice; single intraperitoneal injection of 1 mg) [%]	efficacy compared to MMe in several types of cancer [3]
N=C(N)NC(=N)NCCCCCCCCCC[P+](c1ccccc1)(c1ccccc1)c1ccccc1.[Br-] [MMe, 10-[(carbamimidamidomethanimidoyl)amino]decyl-triphenylphosphonium bromide, reference compound]	more than a log less sensitive	succumbed to 4-fold lower doses	significant and rapid mortality	decreased complex I derived OCR	significantly reduced TMRE accumulation	decreased in a concentration-dependent manner				
N=C(N)NC(=N)NCCCCCCCCCC[P+](c1ccc(C(F)(F)F)cc1)(c1ccc(C(F)(F)F)cc1)c1ccc(C(F)(F)F)cc1.[Br-] [pCF3-MMe, (10-(3-carbamimidoylguanidino)decyl)tris(4-(trifluoromethyl)phenyl)phosphonium bromide]	more than a log less sensitive	tolerated a 1 mg dose		decreased complex I derived OCR	significantly reduced TMRE accumulation	decreased in a concentration-dependent manner	~10	least toxic effects	100	only a slight change in efficacy
